Data from ChEMBL document CHEMBL1156348, “Coumarins with monoamine oxidase inhibitory activity and antioxidative coumarino-lignans from Hibiscus syriacus” (J Nat Prod, 2001).
In brackets after ≈: the same amount, converted by molar mass. Activity calls are given as the source filed them. No cut-off for these calls is given here.

Key:
[1] = tested on: Liver microsomes; assay: Antioxidant activity in rat liver microsomes assessed as inhibition of lipid peroxidation by TBA method; format: functional, Microsome
[2] = Inhibition of mouse brain monoamine oxidase by Krajl method
[3] = species: Mus musculus; assay: Inhibition of mouse brain monoamine oxidase up to 70 ug/mL by Krajl method

Row | Compound | IC50 [1] [µg/mL] | IC50 [2] [µg/mL] | Activity [3]
1 | COc1cc([C@H]2Oc3c(OC)cc4ccc(=O)oc4c3O[C@@H]2CO)ccc1O [CLEOMISCOSIN A] | 9 (≈ 23.3 µM) | – | –
2 | COc1cc([C@H]2Oc3c(OC)cc4ccc(=O)oc4c3O[C@@H]2CO)cc(OC)c1O [CLEOMISCOSIN C] | 0.7 (≈ 1.68 µM) | – | –
3 | COc1c(OC)c(O)c2oc(=O)ccc2c1OC | – | 44.5 (≈ 176 µM) | –
4 | COc1cc([C@H]2Oc3c(OC)cc4ccc(=O)oc4c3O[C@@H]2C)cc(OC)c1O | 1.4 (≈ 3.5 µM) | – | inactive

Other lines, results leading:

Row | IC50 [1] [µg/mL] | IC50 [2] [µg/mL] | Activity [3] | Compound
5 | – | 19.4 (≈ 101 µM) | – | COc1cc2ccc(=O)oc2cc1O [SCOPOLETIN]
6 | 5.5 (≈ 13.2 µM) | – | – | COc1cc([C@@H]2Oc3c(c(OC)cc4ccc(=O)oc34)O[C@H]2CO)cc(OC)c1O [CLEOMISCOSIN D]
7 | 0.8 | – | – | VITAMIN E
